Assay results: patent publication US6613718B2, “Aryl ether derivatives and processes for their preparation and herbicidal and desiccant compositions containing them” (Ishihara Sangyo Kaisha, Ltd., priority 2001, dated 2003)

Assays:
Assay type in all cases: in vivo
Settings in all cases: 14 days after application
[1] = tested on: field corn (Zea mays L., var. Dekalb 535, CORN); experiment: Pre-emerge greenhouse screening, crop safety (phytotoxicity rating)
Outline: (§1)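 Herbicidal effect was recorded as percent-style phytotoxicity, 0 (none) to 100 (complete plant death), two weeks post-application. Applications were made over soil (pre-emerge, sown a day earlier) or over 2-3 leaf plants (post-emerge), using acetone solutions at 15–1000 g ai/ha.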

[2] = tested on: soybean (Glycine max L., var. Pella 86, SOY); experiment: as above
Outline: as §1

[3] = tested on: upland rice (Oryza sp., var.Tebonnet, RICE); experiment: as above
Outline: as §1

[4] = tested on: lambsquarters (Chenopodium album, CHEAL); experiment: Post-emerge greenhouse herbicide activity screening, phytotoxicity rating
Outline: as §1

[5] = tested on: barnyardgrass (Echinochloa crus-galli, ECHCG); experiment: as above
Outline: as §1

[6] = tested on: sicklepod (Cassia obtusifolia, CASOB); experiment: as above
Outline: as §1

[7] = tested on: common ragweed (Ambrosia artemisiifolia L., AMBEL); experiment: as above
Outline: as §1

[8] = tested on: johnsongrass (Sorghum halepense, SORHA); experiment: as above
Outline: as §1

[9] = tested on: redroot pigweed (Amaranthus retroflexus, AMARE); experiment: as above
Outline: as §1

[10] = tested on: large crabgrass (Digitaria sanguinalis, DIGSA); experiment: as above
Outline: as §1

[11] = tested on: green foxtail (Setaria viridis, SETVI); experiment: as above
Outline: as §1

[12] = tested on: velvetleaf (Abutilon theophrasti, ABUTH); experiment: as above
Outline: as §1

[13] = tested on: ivyleaf morningglory (Ipomoea hederacea, IPOHE); experiment: as above
Outline: as §1

[14] = tested on: lambsquarters (Chenopodium album, CHEAL); experiment: Pre-emerge greenhouse herbicide activity screening, phytotoxicity rating
Outline: as §1

[15] = tested on: barnyardgrass (Echinochloa crus-galli, ECHCG); experiment: as above
Outline: as §1

[16] = tested on: sicklepod (Cassia obtusifolia, CASOB); experiment: as above
Outline: as §1

[17] = tested on: common ragweed (Ambrosia artemisiifolia L., AMBEL); experiment: as above
Outline: as §1

[18] = tested on: johnsongrass (Sorghum halepense, SORHA); experiment: as above
Outline: as §1

[19] = tested on: redroot pigweed (Amaranthus retroflexus, AMARE); experiment: as above
Outline: as §1

[20] = tested on: large crabgrass (Digitaria sanguinalis, DIGSA); experiment: as above
Outline: as §1

[21] = tested on: green foxtail (Setaria viridis, SETVI); experiment: as above
Outline: as §1

[22] = tested on: velvetleaf (Abutilon theophrasti, ABUTH); experiment: as above
Outline: as §1

[23] = tested on: ivyleaf morningglory (Ipomoea hederacea, IPOHE); experiment: as above
Outline: as §1

[24] = tested on: soybean (Glycine max L., var. Pella 86, SOY); experiment: Post-emerge greenhouse screening, crop safety (phytotoxicity rating)
Outline: as §1

[25] = tested on: upland rice (Oryza sp., var.Tebonnet, RICE); experiment: as above
Outline: as §1

[26] = tested on: field corn (Zea mays L., var. Dekalb 535, CORN); experiment: Post-emerge greenhouse screening, crop safety / corn selectivity (phytotoxicity rating)
Outline: as §1

Cn1c(C(F)(F)F)cc(=O)n(-c2cc(Oc3ccccc3C#N)c(Cl)cc2F)c1=S [Compound 1-66]
CORN crop damage, phytotoxicity rating (0-100 scale) ([1]; 125 g ai/ha): 0
CORN crop damage, phytotoxicity rating (0-100 scale) ([1]; 250 g ai/ha): 0
SOY crop damage, phytotoxicity rating (0-100 scale) ([2]; 125 g ai/ha): 0
SOY crop damage, phytotoxicity rating (0-100 scale) ([2]; 250 g ai/ha): 0
RICE crop damage, phytotoxicity rating (0-100 scale) ([3]; 125 g ai/ha): 40
RICE crop damage, phytotoxicity rating (0-100 scale) ([3]; 250 g ai/ha): 45
CHEAL phytotoxicity rating (0-100 scale) ([4]; 125 g ai/ha): 98
CHEAL phytotoxicity rating (0-100 scale) ([4]; 250 g ai/ha): 100
ECHCG phytotoxicity rating (0-100 scale) ([5]; 125 g ai/ha): 0
ECHCG phytotoxicity rating (0-100 scale) ([5]; 250 g ai/ha): 0
CASOB phytotoxicity rating (0-100 scale) ([6]; 125 g ai/ha): 75
CASOB phytotoxicity rating (0-100 scale) ([6]; 250 g ai/ha): 75
AMBEL phytotoxicity rating (0-100 scale) ([7]; 125 g ai/ha): 75
AMBEL phytotoxicity rating (0-100 scale) ([7]; 250 g ai/ha): 75
SORHA phytotoxicity rating (0-100 scale) ([8]; 125 g ai/ha): 0
SORHA phytotoxicity rating (0-100 scale) ([8]; 250 g ai/ha): 0
AMARE phytotoxicity rating (0-100 scale) ([9]; 125 g ai/ha): 70
AMARE phytotoxicity rating (0-100 scale) ([9]; 250 g ai/ha): 70
DIGSA phytotoxicity rating (0-100 scale) ([10]; 125 g ai/ha): 0
DIGSA phytotoxicity rating (0-100 scale) ([10]; 250 g ai/ha): 0
SETVI phytotoxicity rating (0-100 scale) ([11]; 125 g ai/ha): 0
SETVI phytotoxicity rating (0-100 scale) ([11]; 250 g ai/ha): 0
ABUTH phytotoxicity rating (0-100 scale) ([12]; 125 g ai/ha): 90
ABUTH phytotoxicity rating (0-100 scale) ([12]; 250 g ai/ha): 90
IPOHE phytotoxicity rating (0-100 scale) ([13]; 125 g ai/ha): 70
IPOHE phytotoxicity rating (0-100 scale) ([13]; 250 g ai/ha): 85
CHEAL phytotoxicity rating (0-100 scale) ([14]; 125 g ai/ha): 100
CHEAL phytotoxicity rating (0-100 scale) ([14]; 250 g ai/ha): 100
ECHCG phytotoxicity rating (0-100 scale) ([15]; 125 g ai/ha): 55
ECHCG phytotoxicity rating (0-100 scale) ([15]; 250 g ai/ha): 60
CASOB phytotoxicity rating (0-100 scale) ([16]; 125 g ai/ha): 35
CASOB phytotoxicity rating (0-100 scale) ([16]; 250 g ai/ha): 65
AMBEL phytotoxicity rating (0-100 scale) ([17]; 125 g ai/ha): 60
AMBEL phytotoxicity rating (0-100 scale) ([17]; 250 g ai/ha): 65
SORHA phytotoxicity rating (0-100 scale) ([18]; 125 g ai/ha): 60
SORHA phytotoxicity rating (0-100 scale) ([18]; 250 g ai/ha): 75
AMARE phytotoxicity rating (0-100 scale) ([19]; 125 g ai/ha): 100
AMARE phytotoxicity rating (0-100 scale) ([19]; 250 g ai/ha): 100
DIGSA phytotoxicity rating (0-100 scale) ([20]; 125 g ai/ha): 90
DIGSA phytotoxicity rating (0-100 scale) ([20]; 250 g ai/ha): 99
SETVI phytotoxicity rating (0-100 scale) ([21]; 125 g ai/ha): 99
SETVI phytotoxicity rating (0-100 scale) ([21]; 250 g ai/ha): 100
ABUTH phytotoxicity rating (0-100 scale) ([22]; 125 g ai/ha): 85
ABUTH phytotoxicity rating (0-100 scale) ([22]; 250 g ai/ha): 99
IPOHE phytotoxicity rating (0-100 scale) ([23]; 125 g ai/ha): 90
IPOHE phytotoxicity rating (0-100 scale) ([23]; 250 g ai/ha): 100
SOY crop damage, phytotoxicity rating (0-100 scale) ([24]; 125 g ai/ha): 10
SOY crop damage, phytotoxicity rating (0-100 scale) ([24]; 250 g ai/ha): 10
RICE crop damage, phytotoxicity rating (0-100 scale) ([25]; 125 g ai/ha): 0
RICE crop damage, phytotoxicity rating (0-100 scale) ([25]; 250 g ai/ha): 0
CORN crop damage, phytotoxicity rating (0-100 scale) ([26]; 125 g ai/ha): 0
CORN crop damage, phytotoxicity rating (0-100 scale) ([26]; 250 g ai/ha): 0
